Broadly, the Kd is the free concentration of one partner at which half of the binding sites on the other are occupied at equilibrium, for simple one-to-one binding. High values mean lower affinity, low ones higher affinity.

For the test, the target named is 40-residue Alzheimer’s β-amyloid peptide (Aβ40) fibrils (Homo sapiens, UniProt P05067). The test can be described thus: HPLC titration of free/bound ligand on preformed fibrils. In kind it is binding.
Sequence of 40-residue Alzheimer’s β-amyloid peptide (Aβ40) fibrils (P05067 672-711): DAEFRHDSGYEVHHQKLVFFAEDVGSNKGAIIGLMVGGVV

`CNc1ccc(-c2nc3ccc(O)cc3s2)cc1F` [flutemetamol] came in with a Kd of 1600 ± 200 nM.

For the origin of these results see paper PMC8855532 (Journal of the American Chemical Society, 2022).
